The record followed here is patent US5157052A, “Method for inhibiting IgE production” (priority 1990, dated 1992).

Molecules are shown by their SMILES.

One assay deals with IgE. Kind of assay: Inhibition of de novo IgE synthesis after oral (intragastric) administration. In kind it is in vivo, mouse (Balb/c female). The following applies: for IgE ± SD: 20 μg intragastric TID days 3 and 4. As to the method:
ELISA (enzyme linked immunosorbant assay) measurements of IgE are as follows. About 5 μg of B1E3 antibody in 100 μl borate buffered saline (pH8.5) is added to wells of a NuncImmulon II 96 well plate (DiRuscio & Assoc., St. Louis, Mo.) at 37° C. for 90 minutes. The non-bound antibody is removed by flicking the plate. Unreacted sites on the plastic plate are blocked by adding about 200 μl of a 2% solution of newborn bovine serum (NBS) in PBS at 37° C. for 60 minutes. The standard IgE (or an unknown murine serum sample) is diluted to between about 4 ng/ml-256 ng/ml in Hanks-HS (20 mM Hepes, 2% NBS in Hanks Balanced Salt Solution, Gibco, Grand Island, N.Y.) or to 1/200 to 1/1000 in Hanks-HS respectively. 100 μl of standard (or unknown dilutions) are added in triplicate to the wells of the plate and allowed to absorb to B1E3 antibody at about 37° C. for 2-4 hours. The solution is removed by flicking the plate and each well is washed with about 0.5 ml 0.05% Tween 20-PBS 5 times. About 100 μl of biotinylated R1E4, called the primary antibody, diluted to 200 ng/ml is added to all wells and incubated at about 4° C. overnight. The solution is removed by flicking the plate and washed 5 times as described above. The developing reagent (Avidin and biotin-horse radish peroxidase) is incubated in 2% NBS in PBS at ambient temperature for 30 minutes, according to manufacturer's specifications (Vector Laboratories, Burlingame, Calif.). About 100 μl of developing reagent is added to each well and incubated at ambient temperature for 30 minutes. Colorimetric substrate for the developing reagent (ABTS peroxidase substrate system, KPL, Gaithersburg, Md.) is prepared by mixing equal volumes of solutions A and B and incubating at ambient temperature for 60 minutes. The developing reagent solution is removed by flicking the plate and washed 5 times as described above. About 100 μl of the mixture of substrates is added to each well and incubated at ambient temperature for 60 minutes. The optical density of each well is determined on a BioTek ELISA reader (Biotek Instruments, Inc., Burlington, Vermont) and the absorbance data transferred electronically to a DEC VAX mainframe computer. A standard curve is fitted to the IgE standard optical densities using straight line, linear regression statistical fits. IgE in the unknown serum samples is determined by comparing the optical density of the unknown to the standard curve and multiplying that number by the dilution of serum used in the assay.
Three groups of 4 Balb/c female mice per group are injected with both 100 μg FF1-4D5 antibody and 100 μg H∂A1 antibody (Groups B, C, and D). Another group of 4 Balb/c female mice is injected with PBS alone, unstimulated control Group A. One of the stimulated group were not given any prostaglandin control Group B. On day 3 and 4, individual groups receive an intragastric feeding TID of 0.25 ml of 20 μg of (±) methyl 11α,16-dihydroxy-16-methyl-9-oxoprosta-5Z,13E-dien-1-oate (Group C) or 20 μg of prostaglandin E2 (Group D) dissolved in PBS.

The next assay concerns Lyt 1. Kind of assay: Splenocyte cell surface density/distribution (FACS): Lyt 1. The assay is classed as in vivo, mouse (Balb/c female).

As to `CCCCC(C)(O)C/C=C/[C@H]1[C@H](O)CC(=O)[C@@H]1C/C=C\CCCC(=O)OC` (mixture of isomers) [(±) methyl 11α,16-dihydroxy-16-methyl-9-oxoprosta-5Z,13E-dien-1-oate], the “inhibition of de novo IgE synthesis after oral administration” value in the assay with IgE (20 μg intragastric TID) is given as “significantly inhibits de novo IgE synthesis after oral administration”. The “IgE ± SD” value amounted to 1490 ± 525 ng/mL in the assay with IgE (day 8 (stimulated control 5792, unstimulated 1015)); 1131 ± 198 ng/mL with IgE (day 10 (stimulated control 1498)); 1115 ± 201 ng/mL with IgE (day -1 baseline before treatment). In addition, the “Percentage Positive Cells” value in the assay with Lyt 1 (anti-IgD stimulated mice, 20 μg days 3 and 4, day 7 (PBS 31.3)) turned out to be 30.4 ± 8.8%; in the assay on Lyt 1 (unstimulated mice, 20 μg (PBS 31)), 44.5 ± 7%. The “Mean Channel Log Fluorescence” value with Lyt 1 (anti-IgD stimulated mice, 20 μg days 3 and 4, day 7 (PBS 110)) amounted to 109 ± 2; in the assay with Lyt 1 (unstimulated mice, 20 μg (PBS 110)), 117 ± 6.
